What was measured:
MV-4-11 cells = assay: Cell growth inhibition assay (CellTiter-Glo), MV-4-11; assay type: cell-based; settings: Homo sapiens, MV4-11
Procedure, shortened: (§1)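 Cellular ATP (CellTiter-Glo luminescence) measured after 4 days at 37° C., 5% CO2 of compound exposure, top concentration 10 μM in 3-fold steps, 0.1% DMSO. Readings corrected for no-cell background and a day-0 plate, normalised to vehicle and medium wells; half-maximal and total growth inhibition from four-parameter curves.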

THP-1 cells = assay: Cell growth inhibition assay (CellTiter-Glo), THP-1; assay type: cell-based; settings: Homo sapiens
Procedure, shortened: as §1

K-562 cells = assay: Cell growth inhibition assay (CellTiter-Glo), K-562; assay type: cell-based, human; settings: for GI50: Homo sapiens, K562
Procedure, shortened: as §1

| GI50 (MV-4-11 cells) [nM] | GI50 (THP-1 cells) [nM] | GI50 (K-562 cells) [nM] | Structure (SMILES) | IC (TGI) (K-562 cells) [nM] |
| --- | --- | --- | --- | --- |
| 18.6 | 31.8 | 150 | Cc1cc(N2C(=O)c3c(c(C4CC4)nn3-c3ccnn3C)C2c2ccc(Cl)cc2)cn2c(C)nnc12 (stereo not shown) [Example 117, 4-(4-chlorophenyl)-3-cyclopropyl-5-(3,8-dimethyl-[1,2,4]triazolo[4,3-a]pyridin-6-yl)-1-(1-methyl-1H-pyrazol-5-yl)-4,5-dihydropyrrolo-[3,4-c]pyrazol-6(1H)-one] |  |
| 6.15 | 9.45 | 62 | Cc1nn(C2CC2)c2c1[C@@H](c1ccc(Cl)cc1)N(c1cc(C)c3nnc(C)n3c1)C2=O [Example 119, (R)-4-(4-chlorophenyl)-1-cyclopropyl-5-(3,8-dimethyl-[1,2,4]triazolo[4,3-a]pyridin-6-yl)-3-methyl-4,5-dihydropyrrolo-[3,4-c]pyrazol-6(1H)-one] | >10000 |
| 55.7 | 79.2 | 402 | Cc1nn(-c2ccnn2C)c2c1[C@@H](c1ccc(Cl)cc1)N(c1cc(C)c(=O)n(C)c1)C2=O [Example 120, (R)-4-(4-chlorophenyl)-5-(1,5-dimethyl-6-oxo-1,6-dihydropyridin-3-yl)-3-methyl-1-(1-methyl-1H-pyrazol-5-yl)-4,5-dihydropyrrolo-[3,4-c]pyrazol-6(1H)-one] | >10000 |
| 830 | 2110 | 9710 | Cc1nn(-c2ccnn2C)c2c1[C@H](c1ccc(Cl)cc1)N(c1cc(C)c(=O)n(C)c1)C2=O [Example 121, (S)-4-(4-chlorophenyl)-5-(1,5-dimethyl-6-oxo-1,6-dihydropyridin-3-yl)-3-methyl-1-(1-methyl-1H-pyrazol-5-yl)-4,5-dihydropyrrolo-[3,4-c]pyrazol-6(1H)-one] |  |
| 3.41 | 4.32 | 24.1 | Cc1nn(C2CC2)c2c1[C@@H](c1ccc(Cl)cc1)N(c1cc(C)c3nnc(C)n3n1)C2=O [Example 122, (R)-4-(4-chlorophenyl)-1-cyclopropyl-5-(3,8-dimethyl-[1,2,4]triazolo[4,3-b]-pyridazin-6-yl)-3-methyl-4,5-dihydropyrrolo[3,4-c]pyrazol-6(1H)-one] |  |
| 2870 | 5880 | 9400 | Cc1nn(C2CC2)c2c1[C@H](c1ccc(Cl)cc1)N(c1cc(C)c3nnc(C)n3n1)C2=O [Example 123, (S)-4-(4-chlorophenyl)-1-cyclopropyl-5-(3,8-dimethyl-[1,2,4]triazolo[4,3-b]pyridazin-6-yl)-3-methyl-4,5-dihydropyrrolo-[3,4-c]pyrazol-6(1H)-one] |  |
| 296 | 695 | 2520 | Cc1nn(-c2ccnn2C)c2c1[C@H](c1ccc(Cl)cc1)N(c1cc(C)c3nnc(C)n3c1)C2=O [Example 124, (S)-4-(4-chlorophenyl)-5-(3,8-dimethyl-[1,2,4]triazolo[4,3-a]pyridin-6-yl)-3-methyl-1-(1-methyl-1H-pyrazol-5-yl)-4,5-dihydropyrrolo[3,4-c]pyrazol-6(1H)-one] |  |
| 18.7 | 25.8 | 101 | Cc1nn(-c2ccnn2C)c2c1[C@@H](c1ccc(Cl)cc1)N(c1cc(C)c3nnc(C)n3c1)C2=O [Example 125, (R)-4-(4-chlorophenyl)-5-(3,8-dimethyl-[1,2,4]triazolo[4,3-a]pyridin-6-yl)-3-methyl-1-(1-methyl-1H-pyrazol-5-yl)-4,5-dihydropyrrolo[3,4-c]pyrazol-6(1H)-one] | >10000 |
| 404 | 576 | 4150 | CC(=O)Nc1cc(N2C(=O)c3c(c(C)nn3C3CC3)C2c2ccc(Cl)cc2)nn2c(C)nnc12 (stereo not shown) [Example 126, N-(6-(4-(4-chlorophenyl)-1-cyclopropyl-3-methyl-6-oxopyrrolo[3,4-c]pyrazol-5-(1H,4H,6H)-yl)-3-methyl-[1,2,4]triazolo[4,3-b]pyridazin-8-yl)acetamide] |  |
| 2260 | 4230 | > 10000 | COc1ncccc1-n1nc(C)c2c1C(=O)N(c1cc(C)c(=O)n(C)c1)[C@H]2c1ccc(Cl)cc1 [Example 127, (S)-4-(4-chlorophenyl)-5-(1,5-dimethyl-6-oxo-1,6-dihydropyridin-3-yl)-1-(2-methoxypyridin-3-yl)-3-methyl-4,5-dihydropyrrolo-[3,4-c]pyrazol-6(1H)-one] |  |
| 34.5 | 64.6 | 183 | COc1ncccc1-n1nc(C)c2c1C(=O)N(c1cc(C)c(=O)n(C)c1)[C@@H]2c1ccc(Cl)cc1 [Example 128, (R)-4-(4-chlorophenyl)-5-(1,5-dimethyl-6-oxo-1,6-dihydropyridin-3-yl)-1-(2-methoxypyridin-3-yl)-3-methyl-4,5-dihydropyrrolo-[3,4-c]pyrazol-6(1H)-one] | >10000 |
| 16.1 | 35.7 | 195 | COCc1nn(C2CC2)c2c1C(c1ccc(Cl)cc1)N(c1cc(C)c3nnc(C)n3c1)C2=O (stereo not shown) [Example 130, 4-(4-chlorophenyl)-1-cyclopropyl-5-(3,8-dimethyl-[1,2,4]triazolo[4,3-a]pyridin-6-yl)-3-(methoxymethyl)-4,5-dihydropyrrolo[3,4-c]pyrazol-6(1H)-one] | >10000 |
| 24.5 | 59.7 | 215 | Cc1cc(N2C(=O)c3c(c(CO)nn3C3CC3)C2c2ccc(Cl)cc2)cn2c(C)nnc12 (stereo not shown) [Example 131, 4-(4-chlorophenyl)-1-cyclopropyl-5-(3,8-dimethyl-[1,2,4]triazolo[4,3-a]pyridin-6-yl)-3-(hydroxymethyl)-4,5-dihydropyrrolo-[3,4-c]pyrazol-6(1H)-one] | >10000 |
| 69 | 166 | 451 | Cc1cc(N2C(=O)c3c(c(CO)nn3C3CC3)C2c2ccc(Cl)cc2)cn(C)c1=O (stereo not shown) [Example 133, 4-(4-chlorophenyl)-1-cyclopropyl-5-(1,5-dimethyl-6-oxo-1,6-dihydropyridin-3-yl)-3-(hydroxymethyl)-4,5-dihydropyrrolo-[3,4-c]pyrazol-6(1H)-one] |  |

The remaining lines, values behind:

| Structure (SMILES) | GI50 (MV-4-11 cells) [nM] | GI50 (THP-1 cells) [nM] | GI50 (K-562 cells) [nM] | IC (TGI) (K-562 cells) [nM] |
| --- | --- | --- | --- | --- |
| CCc1nn(C2CC2)c2c1[C@@H](c1ccc(Cl)cc1)N(c1cc(C)c3nnc(C)n3c1)C2=O [Example 107, (R)-4-(4-chlorophenyl)-1-cyclopropyl-5-(3,8-dimethyl-[1,2,4]triazolo[4,3-a]pyridin-6-yl)-3-ethyl-4,5-dihydropyrrolo-[3,4-c]pyrazol-6(1H)-one] | 7.28 | 8.18 | 37.9 | >10000 |
| CCc1nn(CCOCC(F)(F)F)c2c1C(c1ccc(Cl)cc1)N(c1cc(OC)c3nnc(C)n3c1)C2=O (stereo not shown) [Example 108, 4-(4-chlorophenyl)-3-ethyl-5-(8-methoxy-3-methyl-[1,2,4]triazolo[4,3-a]pyridin-6-yl)-1-(2-(2,2,2-trifluoroethoxy)ethyl)-4,5-dihydropyrrolo[3,4-c]pyrazol-6(1H)-one] | 267 | 397 | 1510 |  |
| COc1ncccc1-n1nc(C)c2c1C(=O)N(c1cc(C)c3nnn(C)c3n1)C2c1ccc(Cl)cc1 (stereo not shown) [Example 109, 4-(4-chlorophenyl)-5-(3,7-dimethyl-3H-[1,2,3]triazolo[4,5-b]pyridin-5-yl)-1-(2-methoxypyridin-3-yl)-3-methyl-4,5-dihydropyrrolo-[3,4-c]pyrazol-6(1H)-one] | 18.6 | 39.8 | 269 |  |
| Cc1nn(C2CC2)c2c1C(c1ccc(Cl)cc1)N(c1cc(C)c3nnn(C)c3n1)C2=O (stereo not shown) [Example 110, 4-(4-chlorophenyl)-1-cyclopropyl-5-(3,7-dimethyl-3H-[1,2,3]triazolo[4,5-b]pyridin-5-yl)-3-methyl-4,5-dihydropyrrolo-[3,4-c]pyrazol-6(1H)-one] | 5.25 | 10.6 | 50.3 |  |
| COc1ncccc1-n1nc(C)c2c1C(=O)N(c1cc(C)c3nnc(C)n3n1)C2c1ccc(Cl)cc1 (stereo not shown) [Example 111, 4-(4-chlorophenyl)-5-(3,8-dimethyl-[1,2,4]triazolo[4,3-b]pyridazin-6-yl)-1-(2-methoxypyridin-3-yl)-3-methyl-4,5-dihydropyrrolo-[3,4-c]pyrazol-6(1H)-one] | 16.2 | 22 | 177 |  |
| Cc1nn(C2CC2)c2c1C(c1ccc(Cl)cc1)N(c1cc(N(C)C(=O)OC(C)(C)C)c3nnc(C)n3n1)C2=O (stereo not shown) [Example 112, tert-butyl (6-(4-(4-chlorophenyl)-1-cyclopropyl-3-methyl-6-oxopyrrolo[3,4-c]pyrazol-5(1H,4H,6H)-yl)-3-methyl-[1,2,4]triazolo[4,3-b]pyridazin-8-yl)(methyl)carbamate] | 758 | 1280 | 2810 |  |
| Cc1nn(-c2ccnn2C)c2c1C(c1ccc(Cl)cc1)N(c1cc(C)c3nnc(C)n3n1)C2=O (stereo not shown) [Example 114, 4-(4-chlorophenyl)-5-(3,8-dimethyl-[1,2,4]triazolo[4,3-b]pyridazin-6-yl)-3-methyl-1-(1-methyl-1H-pyrazol-5-yl)-4,5-dihydropyrrolo-[3,4-c]pyrazol-6(1H)-one] | 20.4 | 30.4 | 187 |  |
| CCn1nc2c(c1C)C(c1ccc(Cl)cc1)N(c1cc(C)c3nnc(C)n3c1)C2=O (stereo not shown) [Example 115, 4-(4-chlorophenyl)-5-(3,8-dimethyl-[1,2,4]triazolo[4,3-a]pyridin-6-yl)-2-ethyl-3-methyl-4,5-dihydropyrrolo-[3,4-c]pyrazol-6(2H)-one] | 22.4 | 34.8 | 142 |  |
| CCn1nc(C)c2c1C(=O)N(c1cc(C)c3nnc(C)n3c1)C2c1ccc(Cl)cc1 (stereo not shown) [Example 116, 4-(4-chlorophenyl)-5-(3,8-dimethyl-[1,2,4]triazolo[4,3-a]pyridin-6-yl)-1-ethyl-3-methyl-4,5-dihydropyrrolo-[3,4-c]pyrazol-6(1H)-one] | 12.5 | 18.8 | 81.2 |  |

From patent US20160095843A1, “PYRAZOLOPYRROLIDINE DERIVATIVES AND THEIR USE IN THE TREATMENT OF DISEASE” (NOVARTIS AG, priority 2013, published 2016)
